Data as given in ChEMBL document CHEMBL5346907, “Discovery of a novel oral type Ⅰ CDK8 inhibitor against acute myeloid leukemia” (Eur J Med Chem, 2023).

How the values were obtained:
[1] = target: Hepatocyte growth factor receptor (Homo sapiens) (UniProt P08581); assay: Inhibition of MET (unknown origin) at 1 uM preincubated for 10 mins followed by substrate addition measured for 60 to 120 mins by HTRF assay relative to control; settings: time 70-130 min
[2] = target: Vascular endothelial growth factor receptor 3 (Homo sapiens) (UniProt P35916); assay: Inhibition of FLT4 (unknown origin) at 1 uM preincubated for 10 mins followed by substrate addition measured for 60 to 120 mins by HTRF assay relative to control; settings: time 70-130 min
[3] = target: CDK1/Cyclin E (Homo sapiens) (UniProt P06493+P24864); assay: Inhibition of CDK1/Cyclin E1 (unknown origin) at 1 uM preincubated for 10 mins followed by substrate addition measured for 60 to 120 mins by HTRF assay relative to control; assay type: protein-complex assay; settings: time 70-130 min
Chain of CDK1/Cyclin E (Homo sapiens) (P06493 whole entry, looked up): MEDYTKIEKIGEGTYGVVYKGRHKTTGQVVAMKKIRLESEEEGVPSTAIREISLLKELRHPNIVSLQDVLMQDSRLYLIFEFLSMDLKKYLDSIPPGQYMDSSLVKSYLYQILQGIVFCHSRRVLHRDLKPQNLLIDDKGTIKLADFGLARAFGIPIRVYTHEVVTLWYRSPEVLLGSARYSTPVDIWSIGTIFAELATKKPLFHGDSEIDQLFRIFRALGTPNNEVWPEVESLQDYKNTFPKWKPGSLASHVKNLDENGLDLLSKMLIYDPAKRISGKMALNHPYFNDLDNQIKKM
Chain of CDK1/Cyclin E (Homo sapiens) (P24864 whole entry, looked up): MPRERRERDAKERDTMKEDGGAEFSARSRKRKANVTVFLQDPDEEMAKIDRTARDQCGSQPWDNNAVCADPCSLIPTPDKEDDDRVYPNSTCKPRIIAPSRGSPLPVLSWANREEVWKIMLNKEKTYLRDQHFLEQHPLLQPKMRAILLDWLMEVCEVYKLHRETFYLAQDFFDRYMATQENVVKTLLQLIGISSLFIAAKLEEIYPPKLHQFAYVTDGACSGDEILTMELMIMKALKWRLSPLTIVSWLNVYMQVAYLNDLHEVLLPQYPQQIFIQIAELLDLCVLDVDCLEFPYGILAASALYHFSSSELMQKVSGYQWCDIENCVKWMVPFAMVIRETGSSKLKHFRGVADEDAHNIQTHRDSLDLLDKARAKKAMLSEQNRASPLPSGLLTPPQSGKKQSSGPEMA

[4] = system: A-375; assay: Antiproliferative activity against human A-375 cells incubated for 48 hrs by CCK8 assay; assay type: functional
[5] = target: High affinity nerve growth factor receptor (Homo sapiens) (UniProt P04629); assay: Inhibition of TRKA (unknown origin) at 1 uM preincubated for 10 mins followed by substrate addition measured for 60 to 120 mins by HTRF assay relative to control; settings: time 70-130 min
[6] = target: CDK4/Cyclin D3 (Homo sapiens) (UniProt P11802+P30281); assay: Inhibition of CDK4/Cyclin D3 (unknown origin) at 1 uM preincubated for 10 mins followed by substrate addition measured for 60 to 120 mins by HTRF assay relative to control; assay type: protein-complex assay; settings: time 70-130 min
[7] = system: C1498; assay: Downregulation of STAT5 S726 expression in mouse C1498 cells allografted in AML Balb/C mouse model administered orally daily for 15 days measured after 3 weeks by Western blot analysis; assay type: functional, cell-based; settings: dose 40-80 mg/kg, route po, time 15.0 day
[8] = system: HL-60; assay: Induction of apoptosis in human HL-60 cells assessed as viable cells at 10 uM incubated for 48 hrs by annexin V-FITC/PI staining based flow cytometry (reference value: 96.5 %); assay type: functional; settings: read-out: Activity
[9] = target: Proto-oncogene tyrosine-protein kinase receptor Ret (Homo sapiens) (UniProt P07949); assay: Inhibition of RET (unknown origin) at 1 uM preincubated for 10 mins followed by substrate addition measured for 60 to 120 mins by HTRF assay relative to control; settings: time 70-130 min
[10] = target: Fibroblast growth factor receptor 2 (Homo sapiens) (UniProt P21802); assay: Inhibition of FGFR2 (unknown origin) at 1 uM preincubated for 10 mins followed by substrate addition measured for 60 to 120 mins by HTRF assay relative to control; settings: time 70-130 min
Chain of Fibroblast growth factor receptor 2 (Homo sapiens) (P21802 22-821 limits assumed): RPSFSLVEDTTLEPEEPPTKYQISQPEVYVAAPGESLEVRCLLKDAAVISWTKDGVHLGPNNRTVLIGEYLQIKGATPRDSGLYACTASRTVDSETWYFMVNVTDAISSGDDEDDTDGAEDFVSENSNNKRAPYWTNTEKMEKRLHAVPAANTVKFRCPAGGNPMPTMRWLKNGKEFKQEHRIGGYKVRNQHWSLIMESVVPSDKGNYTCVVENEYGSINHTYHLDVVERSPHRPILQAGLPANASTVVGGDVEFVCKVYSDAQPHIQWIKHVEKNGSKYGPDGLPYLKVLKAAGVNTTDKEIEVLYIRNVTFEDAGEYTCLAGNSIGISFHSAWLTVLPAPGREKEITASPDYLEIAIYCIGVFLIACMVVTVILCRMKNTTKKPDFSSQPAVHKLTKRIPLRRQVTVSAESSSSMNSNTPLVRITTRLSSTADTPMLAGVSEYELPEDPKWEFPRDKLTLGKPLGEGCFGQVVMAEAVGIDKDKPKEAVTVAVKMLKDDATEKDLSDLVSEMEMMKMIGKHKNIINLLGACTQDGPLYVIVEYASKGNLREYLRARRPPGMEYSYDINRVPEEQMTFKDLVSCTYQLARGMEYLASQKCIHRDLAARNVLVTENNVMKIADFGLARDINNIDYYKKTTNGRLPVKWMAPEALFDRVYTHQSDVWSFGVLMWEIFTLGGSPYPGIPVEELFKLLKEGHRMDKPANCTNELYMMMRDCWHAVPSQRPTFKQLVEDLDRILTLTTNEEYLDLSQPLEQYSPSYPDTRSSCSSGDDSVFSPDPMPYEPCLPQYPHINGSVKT

[11] = target: Tyrosine-protein kinase Lyn (Homo sapiens) (UniProt P07948); assay: Inhibition of LYNb (unknown origin) at 1 uM preincubated for 10 mins followed by substrate addition measured for 60 to 120 mins by HTRF assay relative to control; settings: time 70-130 min
Chain of Tyrosine-protein kinase Lyn (Homo sapiens) (P07948 2-512 limits assumed): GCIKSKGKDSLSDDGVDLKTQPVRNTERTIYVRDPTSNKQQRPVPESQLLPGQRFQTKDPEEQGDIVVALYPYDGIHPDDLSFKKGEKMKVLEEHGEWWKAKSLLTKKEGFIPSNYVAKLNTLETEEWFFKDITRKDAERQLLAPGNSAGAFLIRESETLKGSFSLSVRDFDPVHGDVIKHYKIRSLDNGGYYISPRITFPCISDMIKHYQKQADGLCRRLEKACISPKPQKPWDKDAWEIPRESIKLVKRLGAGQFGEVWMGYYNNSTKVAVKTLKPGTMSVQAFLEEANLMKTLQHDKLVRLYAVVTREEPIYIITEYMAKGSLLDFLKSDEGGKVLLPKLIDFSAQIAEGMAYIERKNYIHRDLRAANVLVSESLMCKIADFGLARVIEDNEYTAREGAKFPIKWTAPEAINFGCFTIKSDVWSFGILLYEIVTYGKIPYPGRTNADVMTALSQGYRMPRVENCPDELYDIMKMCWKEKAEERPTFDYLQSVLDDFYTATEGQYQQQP

[12] = target: Tyrosine-protein kinase SRMS (Homo sapiens) (UniProt Q9H3Y6); assay: Inhibition of SRM (unknown origin) at 1 uM preincubated for 10 mins followed by substrate addition measured for 60 to 120 mins by HTRF assay relative to control; settings: time 70-130 min
[13] = Acute toxicity in C57BL/6 mouse assessed as histopathological change in heart at 2000 mg/kg, IG measured for 14 days by H&E staining based analysis; assay type: organism-based; settings: in vivo, po, 336 h, time 14 day
[14] = target: CDK1/Cyclin A (Homo sapiens) (UniProt P06493+P20248); assay: Inhibition of CDK1/Cyclin A2 (unknown origin) at 1 uM preincubated for 10 mins followed by substrate addition measured for 60 to 120 mins by HTRF assay relative to control; assay type: protein-complex assay; settings: time 70-130 min
Chain of CDK1/Cyclin A (Homo sapiens) (P06493 whole entry, looked up): as the sequence (P06493 whole entry, looked up) above
Chain of CDK1/Cyclin A (Homo sapiens) (P20248 whole entry, looked up): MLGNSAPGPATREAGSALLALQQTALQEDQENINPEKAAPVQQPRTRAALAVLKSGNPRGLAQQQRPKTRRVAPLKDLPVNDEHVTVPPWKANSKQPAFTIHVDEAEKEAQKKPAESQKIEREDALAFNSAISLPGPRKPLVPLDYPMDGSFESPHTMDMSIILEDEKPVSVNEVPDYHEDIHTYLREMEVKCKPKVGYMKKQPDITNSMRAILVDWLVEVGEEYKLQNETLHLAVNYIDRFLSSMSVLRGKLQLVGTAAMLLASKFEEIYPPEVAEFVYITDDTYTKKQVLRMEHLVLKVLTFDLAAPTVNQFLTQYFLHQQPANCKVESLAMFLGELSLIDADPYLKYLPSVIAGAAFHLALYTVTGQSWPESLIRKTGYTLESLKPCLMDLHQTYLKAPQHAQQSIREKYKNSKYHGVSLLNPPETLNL

[15] = target: Tyrosine-protein kinase Tec (Homo sapiens) (UniProt P42680); assay: Inhibition of TEC (unknown origin) at 1 uM preincubated for 10 mins followed by substrate addition measured for 60 to 120 mins by HTRF assay relative to control; settings: time 70-130 min
Chain of Tyrosine-protein kinase Tec (Homo sapiens) (P42680 whole entry): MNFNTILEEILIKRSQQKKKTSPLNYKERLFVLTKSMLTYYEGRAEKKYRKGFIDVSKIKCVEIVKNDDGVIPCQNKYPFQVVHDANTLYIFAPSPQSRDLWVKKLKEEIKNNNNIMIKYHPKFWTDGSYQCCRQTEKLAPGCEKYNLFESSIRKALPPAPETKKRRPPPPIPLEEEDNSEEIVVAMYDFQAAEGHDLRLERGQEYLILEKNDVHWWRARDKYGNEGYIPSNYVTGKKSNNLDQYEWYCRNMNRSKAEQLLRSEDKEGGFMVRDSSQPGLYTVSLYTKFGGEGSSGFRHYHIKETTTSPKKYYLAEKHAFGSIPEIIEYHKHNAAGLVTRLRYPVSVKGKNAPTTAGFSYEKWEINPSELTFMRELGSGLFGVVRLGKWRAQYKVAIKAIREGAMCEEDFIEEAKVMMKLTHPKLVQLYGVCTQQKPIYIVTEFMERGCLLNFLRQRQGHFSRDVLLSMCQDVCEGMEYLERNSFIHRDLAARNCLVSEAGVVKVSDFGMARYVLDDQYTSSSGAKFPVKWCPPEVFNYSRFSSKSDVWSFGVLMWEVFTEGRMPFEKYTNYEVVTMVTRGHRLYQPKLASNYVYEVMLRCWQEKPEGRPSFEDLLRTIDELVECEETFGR

[16] = target: Vascular endothelial growth factor receptor 2 (Homo sapiens) (UniProt P35968); assay: Inhibition of KDR (unknown origin) at 1 uM preincubated for 10 mins followed by substrate addition measured for 60 to 120 mins by HTRF assay relative to control; settings: time 70-130 min
[17] = Cmax in Sprague-Dawley rat at 10 mg/kg, po; assay type: ADME, organism-based; design: dose 10 mg/kg, route po; settings: in vivo
[18] = system: HL-60; assay: Induction of apoptosis in human HL-60 cells assessed as necrotic cells at 1 uM incubated for 48 hrs by annexin V-FITC/PI staining based flow cytometry (reference value: 0.26 %); assay type: functional
[19] = target: CDK3/Cyclin E (Homo sapiens) (UniProt P24864+Q00526); assay: Inhibition of CDK3/CyclinE1 (unknown origin) at 1 uM preincubated for 10 mins followed by substrate addition measured for 60 to 120 mins by HTRF assay relative to control; assay type: protein-complex assay; settings: time 70-130 min
Chain of CDK3/Cyclin E (Homo sapiens) (P24864 whole entry, looked up): as the sequence (P24864 whole entry, looked up) above
Chain of CDK3/Cyclin E (Homo sapiens) (Q00526 whole entry, looked up): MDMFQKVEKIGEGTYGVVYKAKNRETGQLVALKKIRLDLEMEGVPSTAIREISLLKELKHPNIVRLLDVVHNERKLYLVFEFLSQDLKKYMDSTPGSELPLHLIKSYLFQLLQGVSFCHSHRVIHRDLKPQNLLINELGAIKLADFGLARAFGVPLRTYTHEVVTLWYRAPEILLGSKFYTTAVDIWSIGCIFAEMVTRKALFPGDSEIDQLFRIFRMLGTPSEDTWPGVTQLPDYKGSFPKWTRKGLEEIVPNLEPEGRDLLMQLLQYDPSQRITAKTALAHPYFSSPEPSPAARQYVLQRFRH

[20] = target: Activated CDC42 kinase 1 (Homo sapiens) (UniProt Q07912); assay: Inhibition of ACK (unknown origin) at 1 uM preincubated for 10 mins followed by substrate addition measured for 60 to 120 mins by HTRF assay relative to control; settings: time 70-130 min
[21] = target: Proto-oncogene tyrosine-protein kinase Src (Homo sapiens) (UniProt P12931); assay: Inhibition of SRC (unknown origin) at 1 uM preincubated for 10 mins followed by substrate addition measured for 60 to 120 mins by HTRF assay relative to control; settings: time 70-130 min
[22] = target: Epithelial discoidin domain-containing receptor 1 (Homo sapiens) (UniProt Q08345); assay: Inhibition of DDR1 (unknown origin) at 1 uM preincubated for 10 mins followed by substrate addition measured for 60 to 120 mins by HTRF assay relative to control; settings: time 70-130 min
[23] = target: Cyclin-dependent kinase 2/cyclin E1 (Homo sapiens, UniProt P24941); assay: Inhibition of CDK2/Cyclin E1 (unknown origin) preincubated for 10 mins followed by substrate addition measured for 60 to 120 mins by HTRF assay; assay type: protein-complex assay
[24] = system: MOLM-13; assay: Antiproliferative activity against human MOLM-13 cells incubated for 48 hrs by CCK8 assay; assay type: functional
[25] = Toxicity in AML […] mouse model allografted with mouse C1498 cells assessed as body weight loss at 40 to 80 mg/kg, po administered daily for 15 days measured on every 2 days; assay type: organism-based; settings: in vivo, 360 h, dose 40-80 mg/kg, time 15 day
[26] = target: Receptor tyrosine-protein kinase erbB-2 (Homo sapiens) (UniProt P04626); assay: Inhibition of HER2 (unknown origin) at 1 uM preincubated for 10 mins followed by substrate addition measured for 60 to 120 mins by HTRF assay relative to control; settings: time 70-130 min
Chain of Receptor tyrosine-protein kinase erbB-2 (Homo sapiens) (P04626 whole entry): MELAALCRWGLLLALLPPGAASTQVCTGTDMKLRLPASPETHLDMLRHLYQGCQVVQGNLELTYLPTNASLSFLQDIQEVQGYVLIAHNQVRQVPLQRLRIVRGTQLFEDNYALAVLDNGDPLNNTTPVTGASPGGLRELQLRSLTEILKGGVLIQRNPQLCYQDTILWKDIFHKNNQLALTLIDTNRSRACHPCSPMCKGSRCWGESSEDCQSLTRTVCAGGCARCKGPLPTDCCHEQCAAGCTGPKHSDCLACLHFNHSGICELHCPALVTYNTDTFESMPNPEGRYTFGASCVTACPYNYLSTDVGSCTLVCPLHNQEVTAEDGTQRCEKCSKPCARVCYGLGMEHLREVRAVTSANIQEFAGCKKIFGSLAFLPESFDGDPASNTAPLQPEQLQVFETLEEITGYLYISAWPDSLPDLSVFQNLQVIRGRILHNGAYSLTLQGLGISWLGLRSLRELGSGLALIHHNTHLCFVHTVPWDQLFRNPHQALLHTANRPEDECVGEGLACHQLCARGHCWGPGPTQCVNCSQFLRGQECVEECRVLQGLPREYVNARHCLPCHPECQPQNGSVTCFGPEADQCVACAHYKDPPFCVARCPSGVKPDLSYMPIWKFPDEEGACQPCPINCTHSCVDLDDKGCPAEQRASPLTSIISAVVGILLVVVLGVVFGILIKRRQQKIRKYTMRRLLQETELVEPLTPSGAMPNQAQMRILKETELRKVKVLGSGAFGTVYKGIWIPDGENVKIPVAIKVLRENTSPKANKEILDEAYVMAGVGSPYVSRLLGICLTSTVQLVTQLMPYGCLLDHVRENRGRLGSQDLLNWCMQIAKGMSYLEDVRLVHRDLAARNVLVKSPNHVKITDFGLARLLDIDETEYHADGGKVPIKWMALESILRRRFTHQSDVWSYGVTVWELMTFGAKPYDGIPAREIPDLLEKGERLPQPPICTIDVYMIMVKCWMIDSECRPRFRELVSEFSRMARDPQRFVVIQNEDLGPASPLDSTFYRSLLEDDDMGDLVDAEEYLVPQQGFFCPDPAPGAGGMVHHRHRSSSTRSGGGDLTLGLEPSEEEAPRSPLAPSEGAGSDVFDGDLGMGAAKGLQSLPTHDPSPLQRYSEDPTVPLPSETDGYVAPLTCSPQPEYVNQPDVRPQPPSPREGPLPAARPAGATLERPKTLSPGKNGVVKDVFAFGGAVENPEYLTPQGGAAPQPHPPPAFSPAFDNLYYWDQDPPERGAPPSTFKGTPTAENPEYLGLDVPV

[27] = target: Cytoplasmic tyrosine-protein kinase BMX (Homo sapiens) (UniProt P51813); assay: Inhibition of BMX (unknown origin) at 1 uM preincubated for 10 mins followed by substrate addition measured for 60 to 120 mins by HTRF assay relative to control; settings: time 70-130 min
[28] = target: Epidermal growth factor receptor (Homo sapiens) (UniProt P00533); assay: Inhibition of EGFR (unknown origin) at 1 uM preincubated for 10 mins followed by substrate addition measured for 60 to 120 mins by HTRF assay relative to control; settings: time 70-130 min

Question: Which results are given for NC(=O)c1cccc(-c2cnc3[nH]ccc3c2)c1?
Answer: inhibition [1]: 0%; inhibition [2]: 10.7%; inhibition [3]: 8.89%; GI50 [4]: > 50 µM; inhibition [5]: 13.3%; inhibition [6]: 7.02%; Activity [7]: Dose-Dependent Effect; viability at 10 µM [8]: 37.8%; inhibition [9]: 23.9%; inhibition [10]: 4.02%; inhibition [11]: 13.1%; inhibition [12]: 0%; Activity [13]: Non-Toxic; inhibition [14]: 8.45%; inhibition [15]: 0%; inhibition [16]: 31.1%; Cmax [17]: 206 ng/mL; Activity [18]: 5.04%; inhibition [19]: 1.34%; inhibition [20]: 21.6%; inhibition [21]: 0%; inhibition [22]: 20%; IC50 [23]: > 1 µM; GI50 [24]: 1.57 µM; Activity [25]: Non-Toxic; inhibition [26]: 3.32%; inhibition [27]: 5.13%; inhibition [28]: 8.01%
